Our source for the EC50 values is patent publication US20180362543A1, “HIV REPLICATION INHIBITOR” (Shionogi & Co., Ltd., priority 2013, published 2018).

One assay concerns HIV (HTLV-III B strain). Put plainly: HIV replication inhibition assay (MTT, MT-4 cells). The class given is cell-based. The conditions noted are these: 4 days culture, concentration at which cell cytotoxicity by virus is inhibited 50%. The procedure:
HIV (HTLV-III B strain) persistent infected human T cell strain Molt-4 clone 8 was cultured in 10% Fetal Bovine Serum-containing RPMI-1640 medium and the supernatant was filtrated, then the virus titer was measured and the solution was stored at −80° C. Each anti-human immunodeficiency virus active substance was diluted with the above cultured medium to the designated concentration, which was dispensed into 96 well micro plate by 50 μL. Next, a MT-4 cell suspended liquid was dispensed by 100 μL (2.5×10^4 cells), then the above HIV-containing supernatant diluted with the above cultured medium was added thereto by 50 μL (60 pfu (plaque forming unit)).
The obtained mixture was cultured at 37° C. in CO2 incubator for four days, then 3-(4,5-dimehylthiazole-2-yl)-2,5-diphenyltetrazolynium bromide (MTT) 5 mg/mL in PBS was added to each well by 30 μL, followed by 1 hr-cultivation. In this step, as formazan was precipitated by reduction of MTT in living cells, the cell supernatant was removed from all well by 150 μL, then a 150 μL of solution (10% Triton X-100 and […]) was added thereto, followed by shaking with a plate mixer, to elute formazan. The formazan was measured with a microreader at OD: 560 nm and 690 nm (wavelength) and the result was compared with the reference. EC50 means the compound concentration at which cell cytotoxicity by virus is inhibited 50%.
Regarding `Cc1cc(Cl)ccc1-c1c(C)c2c(c(C)c1[C@H](OC(C)(C)C)C(=O)O)N(S(C)(=O)=O)Cc1c(F)ccc(F)c1-2` [Compound 317], the EC50 – broadly, the concentration at which the effect is half-maximal – was determined as 70 nM.

`Cc1cc(Cl)ccc1-c1c(C)c2c(c(C)c1[C@H](OC(C)(C)C)C(=O)O)N(S(C)(=O)=O)Cc1c(F)ccc(F)c1-2` [Compound 318] yielded an EC50 of 17 nM.

The same assay, now with this note: Human immunodeficiency virus 1, MT4, 96 h, 4 days culture, concentration at which cell cytotoxicity by virus is inhibited 50%.
`Cc1ccc(-c2c(C)c3c(c(C)c2[C@H](OC(C)(C)C)C(=O)O)S(=O)(=O)Cc2cc(F)cc(F)c2-3)cc1` [Compound 298]: the EC50 amounted to 30 nM.

The compound `Cc1c(-c2cc(F)c3c(c2F)CCCO3)c([C@H](OC(C)(C)C)C(=O)O)c(C)c2c1-c1c(F)ccc(F)c1CN2S(C)(=O)=O` [Compound 299] gave an EC50 of 26 nM. The EC50 values of the last two compounds are within 1.5-fold of each other.

With `Cc1c(-c2c(C)c3c(c(C)c2[C@H](OC(C)(C)C)C(=O)O)N(S(C)(=O)=O)Cc2ccccc2-3)ccc2c1NCCO2` [Compound 300], the EC50 was less than 7.8 nM.

In the case of `Cc1ccc(-c2c(C)c3c(c(C)c2[C@H](OC(C)(C)C)C(=O)O)N(S(C)(=O)=O)Cc2cc(Cl)ccc2-3)cc1` [Compound 301], the response was half-maximal at 4.9 nM (EC50).

On to `Cc1ccc(-c2c(C)c3c(c(C)c2[C@H](OC(C)(C)C)C(=O)O)N(S(C)(=O)=O)Cc2cccc(Cl)c2-3)cc1` [Compound 302], for which a half-maximal effect (EC50) was put at 28.1 nM.

On to `Cc1ccc(-c2c(C)c3c(c(C)c2[C@H](OC(C)(C)C)C(=O)O)N(S(C)(=O)=O)Cc2c(F)ccc(F)c2-3)c(F)c1` [Compound 304], for which it took 5.2 nM to reach a half-maximal effect (EC50). This EC50 is about 5.4-fold lower than that of the compound before.

As for `Cc1ccc(-c2c(C)c3c(c(C)c2[C@H](OC(C)(C)C)C(=O)O)N(S(C)(=O)=O)Cc2oc(C)nc2-3)cc1` [Compound 305], the midpoint of the response, the EC50, lay at 28 nM.

The compound `COc1nc2c(s1)CN(S(C)(=O)=O)c1c(C)c([C@H](OC(C)(C)C)C(=O)O)c(-c3ccc(C)cc3)c(C)c1-2` [Compound 307] gave an EC50 of 51 nM.

`Cc1c(-c2c(C)c3c(c(C)c2[C@H](OC(C)(C)C)C(=O)O)N(S(C)(=O)=O)Cc2cc(F)cnc2-3)ccc2c1NCCO2` [Compound 310] showed an EC50 of 25 nM.

The compound `Cc1c(-c2ccc3cccnc3c2C)c([C@H](OC(C)(C)C)C(=O)O)c(C)c2c1-c1c(F)ccc(F)c1CN2S(C)(=O)=O` [Compound 311] showed an EC50 of 28 nM.

`Cc1c(-c2c(C)c3c(c(C)c2[C@H](OC(C)(C)C)C(=O)O)N(S(C)(=O)=O)Cc2ccc(F)c(F)c2-3)ccc2c1NCCO2` [Compound 314] returned an EC50 of 5.3 nM.

Compound `Cc1ccc(-c2c(C)c3c(c(C)c2[C@H](OC(C)(C)C)C(=O)O)N(S(C)(=O)=O)Cc2cc(C)cnc2-3)cc1` [Compound 315] returned an EC50 of less than 7.8 nM.

Compound `Cc1ccc(-c2c(C)c3c(c(C)c2[C@H](OC(C)(C)C)C(=O)O)N(S(C)(=O)=O)Cc2c(C(F)(F)F)ccnc2-3)cc1` [Compound 319] had an EC50 of 8.4 nM.

The compound `Cc1c(-c2c(C)c3c(c(C)c2[C@H](OC(C)(C)C)C(=O)O)N(S(C)(=O)=O)Cc2cc(F)cnc2-3)ccc2c1CCCO2` [Compound 320] showed an EC50 of 3.1 nM.

Turning to `Cc1c(-c2ccc3c(c2C)N(C)CCO3)c([C@H](OC(C)(C)C)C(=O)O)c(C)c2c1-c1c(F)ccc(F)c1CN2S(C)(=O)=O` [Compound 321], the EC50 came out at 15 nM.

`COc1cc2c(cn1)-c1c(C)c(-c3ccc4c(c3C)NCCO4)c([C@H](OC(C)(C)C)C(=O)O)c(C)c1N(S(C)(=O)=O)C2` [Compound 322] displayed an EC50 of 11 nM.

Staying with this assay, now noted: Human immunodeficiency virus 1, MT4, 96 h, Table A-5, four days.
`Cc1c(-c2ccc3c(c2)CCCO3)c([C@H](OC(C)(C)C)C(=O)O)c(C)c2c1-c1c(F)cccc1CN2S(C)(=O)=O` [Compound 266]: the midpoint of the response, the EC50, lay at 7.9 nM.

As to `Cc1c(-c2c(C)c3c(c(C)c2[C@H](OC(C)(C)C)C(=O)O)N(S(C)(=O)=O)Cc2cccc(F)c2-3)cc(F)c2c1CCCO2` [Compound 273], the EC50 was determined as 4.5 nM. This EC50 is about 1.8-fold lower than that of the compound before.

`COc1ccc(-c2c(C)c3c(c(C)c2[C@H](OC(C)(C)C)C(=O)O)N(S(C)(=O)=O)Cc2cccc(F)c2-3)c(C)c1` [Compound 275] came in with a concentration for a half-maximal effect (EC50) of 15 nM.

In turn, `Cc1ccc(-c2c(C)c3c(c(C)c2[C@H](OC(C)(C)C)C(=O)O)N(S(C)(=O)=O)Cc2cccc(F)c2-3)c(C)c1` [Compound 278] registered an EC50 of 3.7 nM.

The compound `Cc1ccc(-c2c(C)c3c(c(C)c2[C@H](OC(C)(C)C)C(=O)O)N(S(C)(=O)=O)Cc2cc(C#N)ccc2-3)cc1` [Compound 279] registered an EC50 of 11 nM.

Compound `Cc1c(-c2ccc3c(c2F)NCCO3)c([C@H](OC(C)(C)C)C(=O)O)c(C)c2c1-c1c(F)cccc1CN2S(C)(=O)=O` [Compound 282] registered an EC50 of 8.8 nM.

As to `Cc1ccc(-c2c(C)c3c(c(C)c2[C@H](OC(C)(C)C)C(=O)O)N(S(C)(=O)=O)Cc2cc(F)cnc2-3)cc1` [Compound 284], the midpoint of the response, the EC50, lay at 16 nM.

`Cc1ccc(-c2c(C)c3c(c(C)c2[C@H](OC(C)(C)C)C(=O)O)N(S(C)(=O)=O)CC2CCCCN32)cc1` (some centres unmarked) [Compound 285] registered an EC50 of 55 nM. This EC50 lies about 3.4-fold higher than the previous one.

For `Cc1c(-c2c(C)c3c(c(C)c2[C@H](OC(C)(C)C)C(=O)O)N(S(C)(=O)=O)Cc2cc(F)cc(F)c2-3)ccc2c1NCCO2` [Compound 286], the EC50 was 3.2 nM.

As for `Cc1ccc(-c2c(C)c3c(c(C)c2[C@H](OC(C)(C)C)C(=O)O)N(S(C)(=O)=O)[C@@H](C)c2ccccc2-3)cc1` [Compound 287], the response was half-maximal at 33 nM (EC50).

`CC(=O)N1Cc2ccccc2-c2c(C)c(-c3ccc(C)cc3)c([C@H](OC(C)(C)C)C(=O)O)c(C)c21` [Compound 290]: the EC50 came out at 53 nM. Against the preceding compound, the EC50 is about 1.6-fold higher.

The compound `COc1ccc2c(c1F)CN(S(C)(=O)=O)c1c(C)c([C@H](OC(C)(C)C)C(=O)O)c(-c3ccc4c(c3C)NCCO4)c(C)c1-2` [Compound 293] showed an EC50 of 3.3 nM.

With `Cc1c(-c2ccc3c(c2Cl)NCCO3)c([C@H](OC(C)(C)C)C(=O)O)c(C)c2c1-c1c(F)ccc(F)c1CN2S(C)(=O)=O` [Compound 296], the EC50 is less than 7.8 nM.

Staying with this assay, now noted: Human immunodeficiency virus 1, MT4, 96 h, Table A-7, four days.
The compound `Cc1c(-c2ccc(Cl)cc2O)c([C@H](OC(C)(C)C)C(=O)O)c(C)c2c1-c1c(F)cccc1CN2S(C)(=O)=O` [Compound 324] displayed an EC50 of 8.1 nM.

As for `Cc1c(-c2c(C)c3c(c(C)c2[C@H](OC(C)(C)C)C(=O)O)N(S(C)(=O)=O)Cc2cccc(F)c2-3)ccc(Cl)c1N` [Compound 327], the EC50 was 7.2 nM.

Consider `COc1ccc(-c2c(C)c3c(c(C)c2[C@H](OC(C)(C)C)C(=O)O)N(S(C)(=O)=O)Cc2c(F)ccc(F)c2-3)c(C)n1` [Compound 329], for which the EC50 amounted to 39 nM.

`Cc1ccc(-c2c(C)c3c(c(C)c2[C@H](OC(C)(C)C)C(=O)O)N(S(C)(=O)=O)Cc2cc(N)ncc2-3)c(C)c1` [Compound 330]: the EC50 came out at 53 nM.

`Cc1c(-c2ccc(F)cc2O)c([C@H](OC(C)(C)C)C(=O)O)c(C)c2c1-c1c(F)ccc(F)c1CN2S(C)(=O)=O` [Compound 332] had an EC50 of 24 nM.

The compound `Cc1ccc(-c2c(C)c3c(c(C)c2[C@H](OC(C)(C)C)C(=O)O)N(S(N)(=O)=O)Cc2c(F)ccc(F)c2-3)cc1` [Compound 333] came in with an EC50 of 19 nM.

In turn, `Cc1ccc(-c2c(C)c3c(c(C)c2[C@H](OC(C)(C)C)C(=O)O)N(S(C)(=O)=O)Cc2cccc(F)c2-3)s1` [Compound 334] displayed an EC50 of 22 nM.

Compound `Cc1ccc(-c2c(C)c3c(c(C)c2[C@H](OC(C)(C)C)C(=O)O)N(C(N)=O)Cc2c(F)ccc(F)c2-3)cc1` [Compound 335] had an EC50 of 30 nM.

With `Cc1c(-c2ccc3c(c2)OCCO3)c([C@H](OC(C)(C)C)C(=O)O)c(C)c2c1-c1c(F)cccc1CN2S(C)(=O)=O` [Compound 336], the EC50 was determined as 22 nM.

On to `Cc1c(-c2c(C)c3c(c(C)c2[C@H](OC(C)(C)C)C(=O)O)N(S(C)(=O)=O)[C@@H](C)c2cccnc2-3)ccc2c1NCCO2` [Compound 337], for which the EC50 worked out at 26 nM.

For `Cc1c(-c2ccc3c(c2)NCCC3)c([C@H](OC(C)(C)C)C(=O)O)c(C)c2c1-c1c(F)cccc1CN2S(C)(=O)=O` [Compound 340], the midpoint of the response, the EC50, lay at 4.3 nM.

For `CC(=O)N1Cc2cccc(F)c2-c2c(C)c(-c3ccc4c(c3C)NCCO4)c([C@H](OC(C)(C)C)C(=O)O)c(C)c21` [Compound 342], a half-maximal response (EC50) required 9 nM. Against the preceding compound, the EC50 is about 2.1-fold higher.

Consider `Cc1cc(C)c(-c2c(C)c3c(c(C)c2[C@H](OC(C)(C)C)C(=O)O)N(S(C)(=O)=O)Cc2cccc(F)c2-3)s1` [Compound 343], for which the EC50 stood at 16 nM.

Turning to `Cc1c(-c2c(C)c3c(c(C)c2[C@H](OC(C)(C)C)C(=O)O)N(C)Cc2cc(F)cc(F)c2-3)ccc2c1NCCO2` [Compound 344], the EC50 turned out to be 47 nM.

Compound `Cc1ccc2c(c1)-c1c(C)c(-c3ccc4c(c3C)NCCO4)c([C@H](OC(C)(C)C)C(=O)O)c(C)c1N(S(C)(=O)=O)C2` [Compound 345] returned an EC50 of 6.8 nM.

For the compound `Cc1cccc2c1CN(S(C)(=O)=O)c1c(C)c([C@H](OC(C)(C)C)C(=O)O)c(-c3ccc4c(c3C)NCCO4)c(C)c1-2` [Compound 346], the EC50 came to 4.8 nM.

The same assay, now with this note: Table A-5, four days.
For the compound `Cc1ccc(-c2c(C)c3c(c(C)c2[C@H](OC(C)(C)C)C(=O)O)N(S(C)(=O)=O)CC2CCCCN32)cc1` (some centres unmarked) [Compound 288], the EC50 amounted to 37 nM.

The assay is the same for the next values; noted with them: Table A-7, four days.
As for `Cc1c(-c2ccc(Cl)cc2)c([C@H](OC(C)(C)C)C(=O)O)c(C)c2c1-c1ncc(F)cc1CN2S(C)(=O)=O` [Compound 325], the EC50 is 11 nM.

In the case of `Cc1c(-c2ccccc2)c([C@H](OC(C)(C)C)C(=O)O)c(C)c2c1-c1ncc(F)cc1CN2S(C)(=O)=O` [Compound 326], the EC50 was 54 nM.
